Among the data in patent publication US8658638B2, “Mineralocorticoid receptor antagonist and methods of use” (priority 2009, dated 2014) are EC50 and IC50 values, retold here.

For assay [1], the target named is T1, human glucocorticoid receptor (GR) (Homo sapiens, UniProt P04150).
T1 construct: expressed in transfected cells; host or cells: HEK293
T1 sequence (P04150 1-777): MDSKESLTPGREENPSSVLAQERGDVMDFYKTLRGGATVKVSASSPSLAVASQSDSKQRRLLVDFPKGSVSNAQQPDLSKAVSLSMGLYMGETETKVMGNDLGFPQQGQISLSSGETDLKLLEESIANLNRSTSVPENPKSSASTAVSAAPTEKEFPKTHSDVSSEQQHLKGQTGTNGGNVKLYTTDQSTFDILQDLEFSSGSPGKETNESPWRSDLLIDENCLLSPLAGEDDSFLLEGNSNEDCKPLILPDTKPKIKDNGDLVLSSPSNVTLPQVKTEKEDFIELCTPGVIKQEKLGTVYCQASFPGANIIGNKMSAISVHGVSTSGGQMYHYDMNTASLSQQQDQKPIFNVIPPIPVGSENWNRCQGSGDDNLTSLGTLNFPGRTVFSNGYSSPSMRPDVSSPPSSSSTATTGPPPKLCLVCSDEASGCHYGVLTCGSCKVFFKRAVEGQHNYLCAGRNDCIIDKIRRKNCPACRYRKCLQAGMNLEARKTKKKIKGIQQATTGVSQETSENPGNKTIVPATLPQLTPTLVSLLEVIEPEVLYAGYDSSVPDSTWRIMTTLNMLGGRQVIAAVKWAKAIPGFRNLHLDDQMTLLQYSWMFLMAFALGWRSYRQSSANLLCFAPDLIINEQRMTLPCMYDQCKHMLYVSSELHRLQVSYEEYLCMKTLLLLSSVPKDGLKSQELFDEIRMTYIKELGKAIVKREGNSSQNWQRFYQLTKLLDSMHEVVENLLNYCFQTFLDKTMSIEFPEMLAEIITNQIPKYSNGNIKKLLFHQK
Briefly: Nuclear hormone receptor panel screen (luciferase reporter, HEK293), GR. The class given is cell-based. The source says:
(§1) Aldosterone exerts it physiological effects through interaction with the mineralocorticoid receptor. Following cytoplasmic binding of aldosterone to MR, the ligand receptor complex translocates to the cell nucleus where it binds to hormone response elements on DNA to initiate expression of target genes. […] The solvents, reagents, and ligands employed in the functional assay are readily available from commercial sources, or can be prepared by one of ordinary skill in the art.
(§2) Human embryonic kidney HEK293 cells are transfected with steroid hormone receptor and reporter gene plasmids using a suitable transfection reagent such as Fugene™. […] After 24 hours incubation with test compounds, cells are lysed and luciferase activity is determined using standard techniques.
(§3) Data are fitted to a four parameter-fit logistic curve to determine EC50 values. […] IC50 values are determined similarly using antagonist mode assay data. In the antagonist mode, percent inhibitions are determined by comparing test compound activity in the presence of low concentration of agonist (0.08 nM aldosterone for MR, 0.25 nM dexamethasone for GR, 0.66 nM of methyltrienolone for AR, and 0.08 nM of promegestone for PR) to the response produced by the same low concentration of agonist in the absence of test compound.

In assay [2] the target is T2, human progesterone receptor (PR) (Homo sapiens, UniProt P06401).
T2 construct: expressed in transfected cells; host or cells: HEK293
T2 sequence (P06401 1-933): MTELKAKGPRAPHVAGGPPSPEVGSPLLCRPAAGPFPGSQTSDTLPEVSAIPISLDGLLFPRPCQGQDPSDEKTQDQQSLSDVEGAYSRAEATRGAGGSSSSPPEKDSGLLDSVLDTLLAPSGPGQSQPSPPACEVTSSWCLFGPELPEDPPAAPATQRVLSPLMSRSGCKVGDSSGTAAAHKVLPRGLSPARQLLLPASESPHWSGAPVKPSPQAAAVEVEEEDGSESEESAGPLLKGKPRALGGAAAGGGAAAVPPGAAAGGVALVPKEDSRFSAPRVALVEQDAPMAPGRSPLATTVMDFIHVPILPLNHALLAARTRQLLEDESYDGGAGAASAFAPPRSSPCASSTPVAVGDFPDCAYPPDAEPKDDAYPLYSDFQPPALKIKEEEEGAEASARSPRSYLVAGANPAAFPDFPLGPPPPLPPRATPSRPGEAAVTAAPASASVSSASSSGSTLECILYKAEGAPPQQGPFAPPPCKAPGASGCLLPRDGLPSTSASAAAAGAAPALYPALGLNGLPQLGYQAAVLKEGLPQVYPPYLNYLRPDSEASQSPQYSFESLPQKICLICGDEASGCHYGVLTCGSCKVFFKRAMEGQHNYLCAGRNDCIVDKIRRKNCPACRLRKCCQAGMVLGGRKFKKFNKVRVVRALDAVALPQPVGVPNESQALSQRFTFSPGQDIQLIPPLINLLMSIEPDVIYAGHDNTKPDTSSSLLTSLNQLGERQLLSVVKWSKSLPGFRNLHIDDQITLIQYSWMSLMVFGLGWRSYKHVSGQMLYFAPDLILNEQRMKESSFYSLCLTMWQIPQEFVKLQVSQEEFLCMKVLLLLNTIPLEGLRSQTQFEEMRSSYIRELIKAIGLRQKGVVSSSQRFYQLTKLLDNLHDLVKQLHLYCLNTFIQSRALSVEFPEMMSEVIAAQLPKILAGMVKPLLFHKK
Briefly: Nuclear hormone receptor panel screen (luciferase reporter, HEK293), PR. The class given is cell-based.
Text: as §1, §2, §3

One may read the EC50 as the concentration that produces a half-maximal response. Higher therefore signals weaker potency. As usually defined, the IC50 is the concentration that inhibits the measured activity by half. In the case of `O=c1[nH]c2cc(/C=C3\c4ccccc4COc4cc(F)ccc43)ccc2n1[C@@H]1C[C@@H]2COCCN2C1` [Compound (I), 5-((E)-(3-fluorodibenzo[b,e]oxepin-11(6H)-ylidene)methyl)-1-((7R,8aR)-hexahydro-1H-pyrrolo[2,1-c][1,4]oxazin-7-yl)-1H-benzo[d]imidazol-2(3H)-one], the EC50 in assay [1] (agonist mode) and in assay [2] (agonist mode) was above 10 µM throughout. For the same molecule, the IC50 in assay [1] (antagonist mode, 0.25 nM dexamethasone) was above 10 µM; in assay [2] (antagonist mode, 0.08 nM promegestone) it was around 0.924 µM.
